# Assay results taken from patent publication US4517189A, “2,6,7,8-Substituted quinazolines, process for production thereof, and use thereof” (Showa Denko K.K., priority 1983, dated 1985).
# What was measured:
# [1] = test system: platelet aggregation induced by arachidonic acid; assay: Inhibitory effect on platelet aggregation (arachidonic acid-induced, rabbit platelet-rich plasma); format: cell-based; conditions: arachidonic acid 137 μ moles/liter
# Method: (1) Measurement of inhibitory effect on platelet aggregation:
# Blood was drawn from ether-anesthetized rabbits (weighing 2.5 to 3.5 kg) through a canule inserted into the carotid artery. Immediately then, a 3.8% aqueous solution of sodium citrate was added to the collected blood in a volume of 1/10 of the volume of the blood after addition of the aqueous solution citrate solution. The blood was then centrifuged for 15 minutes at 150 G at room temperature to obtain plasma having platelet suspended therein as a supernatant.
# An aliquot of 0.435 ml of platelet-rich plasma was put into the cell of an aggregometer adjusted to a temperature of 37° C. and a stirring speed of 1200 rpm. […] An aqueous solution of arachidonic acid as a platelet aggregation inducing agent (the final concentration of arachidonic acid is 137μ moles/liter) was added, and with stirring, changes in absorbance were measured for 10 minutes.
# The effect of platelet aggregation inhibition of the test compound was calculated as follows: [formula] ΔC: a change in absorbance in a control run, ΔS: a change in absorbance when the test compound was added.
# In the control run, 2.5 μl of dimethyl sulfoxide was added instead of the test compound.
# [2] = test system: blood pressure (average arterial pressure); assay: Blood pressure lowering activity in anesthetized rabbits; format: in vivo, rabbit; conditions: average of at least three rabbits
# [3] = final concentration 3 μ moles/liter
# [4] = final concentration 10 μ moles/liter
# [5] = final concentration 30 μ moles/liter
# [6] = final concentration 100 μ moles/liter
smiles,measurement,setting,value
"CCOC(=O)c1c(C)cc2cnc(-c3ccccc3Cl)nc2c1C [Example 1, 2-(o-chlorophenyl)-7-ethoxycarbonyl-6,8-dimethylquinazoline]",inhibition of platelet aggregation,[1]; [3],100%
same,inhibition of platelet aggregation,[1]; [4],100%
same,inhibition of platelet aggregation,[1]; [5],100%
same,Blood pressure lowering effect,[2]; 10 μg/kg i.v.,12 mmHg
same,Blood pressure lowering effect,[2]; 30 μg/kg i.v.,22 mmHg
same,Blood pressure lowering effect,[2]; 100 μg/kg i.v.,49 mmHg
"CCOC(=O)c1c(C)cc2cnc(-c3ccccc3)nc2c1C [Example 2, 2-phenyl-7-ethoxycarbonyl-6,8-dimethylquinazoline]",inhibition of platelet aggregation,[1]; [4],100%
same,inhibition of platelet aggregation,[1]; [5],100%
same,Blood pressure lowering effect,[2]; 100 μg/kg i.v.,15 mmHg
"CCOC(=O)c1c(C)cc2cnc(-c3ccccc3C)nc2c1C [Example 3, 2-(o-methylphenyl)-7-ethoxycarbonyl-6,8-dimethylquinazoline]",inhibition of platelet aggregation,[1]; [4],100%
same,inhibition of platelet aggregation,[1]; [5],100%
same,Blood pressure lowering effect,[2]; 100 μg/kg i.v.,20 mmHg
"CCOC(=O)c1c(C)cc2cnc(-c3ccccc3F)nc2c1C [Example 4, 2-(o-fluorophenyl)-7-ethoxycarbonyl-6,8-dimethylquinazoline]",inhibition of platelet aggregation,[1]; final concentration 1 μ moles/liter,100%
same,inhibition of platelet aggregation,[1]; [3],100%
same,Blood pressure lowering effect,[2]; 100 μg/kg i.v.,32 mmHg
"CCOC(=O)c1c(C)cc2cnc(-c3ccccc3C(F)(F)F)nc2c1C [Example 5, 2-(o-trifluoromethylphenyl)-7-ethoxycarbonyl-6,8-dimethylquinazoline]",inhibition of platelet aggregation,[1]; [6],100%
same,Blood pressure lowering effect,[2]; 100 μg/kg i.v.,25 mmHg
"CCOC(=O)c1c(C)cc2cnc(C)nc2c1C [Example 6, 2-methyl-7-ethoxycarbonyl-6,8-dimethylquinazoline]",inhibition of platelet aggregation,[1]; [6],100%
same,Blood pressure lowering effect,[2]; 100 μg/kg i.v.,12 mmHg
"CCOC(=O)c1c(C)cc2cnc(Cc3ccccc3)nc2c1C [Example 7, 2-benzyl-7-ethoxycarbonyl-6,8-dimethylquinazoline]",inhibition of platelet aggregation,[1]; [6],100%
same,Blood pressure lowering effect,[2]; 100 μg/kg i.v.,18 mmHg
